Experimental data as given in patent US11135214B2, “Methods for enhancing the bio availability and exposure of a voltage-gated potassium channel opener” (priority 2018, dated 2021).
Where “and” joins values, the source holds several entries; their conditions need not be identical. Identical values can stand only once. Like-named read-outs stand apart in the source and are kept apart here.

What was measured:
[1] = test system: cortical excitability; experiment: Transcranial magnetic stimulation pilot study (RMT/AMT, TEPs, rEEG)
Experimental: (§1) In a pilot study TMS was used to non-invasively determine whether Compound A (10, 15 and 20 mg) impacts cortical excitability. The TMS pilot study was designed to inform sample size calculation for a larger randomized, double-blind and placebo-controlled TMS cross-over study (N=20) with Compound A.
(§2) Eight healthy, right-handed male subjects (aged 21-35 years, 62.4-95.4 kg) from a First-in-Human Phase 1 study were enrolled in this open-label TMS pilot study. RMT, TEPs and EEGs were recorded prior to Compound A, 2 and 4 h post dose. Spectral analysis was performed on resting EEGs. Single-subject level analyses were performed via multiple independent sample t-tests to determine effects of Compound A on TEP amplitudes. Multiple comparisons were accounted for using clusterbased permutation analysis.

[2] = as above; settings: male, human, in vivo
Experimental: as §1, §2

[3] = TMS crossover study, pharmacokinetic analysis; assay type: in vivo, human; settings: for extrapolated area (% AUCextrap): full PK data set; for Compound A Plasma Concentration: individual subjects; for concentration at 2 h / concentration at 4 h / concentration at 6 h / half-life / AUC(0-t) / Cmax / Tmax / AUC(0-inf) / MRT inf / MRT last / CL/F / Vd/F: male, human, plasma, oral; for Vd/F: read-out: Vz/F normalized
Experimental: A randomized, double-blind, placebo-controlled, transcranial magnetic stimulation (TMS) crossover study investigated the safety, tolerability, pharmacokinetics (PK), and pharmacodynamics (PD) of single doses of Compound A in healthy right-handed male subjects.
Twenty healthy right-handed male subjects were enrolled and randomized in a blinded fashion to receive a single oral dose of 20 mg Compound A or placebo (1:1 randomization ratio) on Day 1, then were crossed over to receive a single dose of the other treatment on Day 7.
Subjects were screened within 27 days prior to entering the study on Day 1. For Period 1, subjects were admitted to the study unit and dosed on Day 1, and discharged on Day 2. For Period 2, following a washout of 6 days, the same subjects were again admitted to the study unit and dosed on Day 7, and discharged on Day 8. All subjects returned to the clinical unit for an outpatient visit on Day 14, and received a follow-up telephone call on Day 37.
Subjects were dosed in a fed state, but the timing of dosing relative to meals was changed during the study, and varied between a high fat or standard meal eaten either 2 h or 30 minutes prior to dosing, and a high fat or standard meal eaten 1 h or 2.5 h after dosing.
The PK parameters for this study were summarized in two ways. Firstly, PK parameters were calculated where possible using the PK samples collected during each 24 h sampling period for Period 1 and Period 2 separately. Secondly, PK parameters were determined using samples beyond the 24 h sampling period (i.e., from Day 7/8 and/or Day 14). For subjects who received Compound A in the first period, PK samples taken prior to placebo treatment provided additional PK timepoints at >24 h. For subjects who received Compound A in the second period, there was no >24 h PK timepoint until a Day 14 PK sample was added. […] The full PK profile data set consists of the 16 subjects for whom PK samples were taken at >24 h post-dose. For discussion of the PK parameters below, the full PK profile data set was generally used, because it allowed more accurate estimation of PK parameters.
Initially, subjects were dosed 2 hours after a high fat meal with a relatively high fat lunch provided 1 hour after dosing. After blinded review of the PK profiles in the initial 8 subjects, the fat content of the lunch was reduced in an attempt to reduce the time to Tmax, so that the Cmax would fall within the timeframe of TMS measurements. In addition, the timing of the meal relative to dose was changed from 2 hours prior, to 30 minutes prior to dose and subsequently the fat content of the breakfast was reduced. All these changes were made in attempts to provide higher plasma levels during the TMS assessment periods. The timing and type of meal for each subject is specified in Table 13. […] As such the PK data is presented without categorization according to meal content, or relative timing of the meal.

[4] = 20 mg, Full PK Profile (N=16), Mean ± SD
[5] = 20 mg, Full PK Profile (N=16), Range
[6] = 20 mg, Full PK Profile Data Set (N=16), Range
[7] = 20 mg, Full PK Profile Data Set (N=16), Mean ± SD

Cc1cc(N2CCc3cc(F)ccc3C2)cc(C)c1NC(=O)CC(C)(C)C [Compound A, N-[4-(6-fluoro-3,4-dihydro-1H-isoquinolin-2-yl)-2,6-dimethylphenyl]-3,3-dimethylbutanamide]
TEP modulation ([1]; 10 mg (N=2) and 15 mg (N=3)): did not show significant and robust TEP modulation
AMT ([1]; 10 mg, N=2): did not change AMT
SICI assessed with TMS/EMG ([1]; 10, 15, 20 mg): but not SICI
motor thresholds assessed with TMS/EMG ([1]; 10, 15, 20 mg, 2 and 4 hours post-drug): increased
RMT increase from baseline ([1]; 4 h post 20 mg): 4.3±0.6%
theta power in rEEG ([1]; 4 h post 20 mg): increased
suppression of TEP amplitude, peak at 180 ms (P180) ([1]; 4 h post 20 mg, p<0.01, N=3): 1.92±0.03 μV
concentration at 4 h ([2]; 10 mg): 23.1 ng/mL
concentration at 4 h ([2]; 15 mg): 36.3 ng/mL
concentration at 4 h ([2]; 20 mg): 50 ± 10 ng/mL
time of median peak plasma concentrations after administration ([3]; 20 mg oral dose): approximately 8 hours
Tlast [3, 4]: 235 ± 81.5 h
Tlast [3, 5]: 142 to 360 h
MRTinf [3, 6]: 33 ± 304 h
t1/2 [3, 6]: 48.2 ± 306 h
Tlast ([3]; 20 mg, Overall (N=20), Mean): 23.8 h
Tlast ([3]; 20 mg, Overall (N=20), Range): 23.1 to 24.3 h
Tlast ([3]; 20 mg, Period 1 (N=10), Mean): 23.8 h
Tlast ([3]; 20 mg, Period 1 (N=10), Range): 23.1 to 24.3 h
Tlast ([3]; 20 mg, Period 2 (N=10), Mean): 23.8 h
Tlast ([3]; 20 mg, Period 2 (N=10), Range): 23.5 to 24.1 h
% AUCextrap, highest values ([3]; 20 mg, a number of subjects above 20%): ≤ 40%
extrapolated area (% AUCextrap) ([3]; 20 mg, median): 19.9%
extrapolated area (% AUCextrap) ([3]; 20 mg, range): 10.6-40.5%
Compound A Plasma Concentration ([3]; Compound A Treatment Period, 20 mg, 2 h, 5 minutes before TMS): 47.2 ng/mL and 1.55 ng/mL and 34 ng/mL and 0 ng/mL (5×) and 55.2 ng/mL and 10.6 ng/mL and 47.1 ng/mL and 3.1 ng/mL and 1.95 ng/mL and 25.7 ng/mL and 2.74 ng/mL and 10.7 ng/mL and 2.52 ng/mL and 8.01 ng/mL
Compound A Plasma Concentration ([3]; Compound A Treatment Period, 20 mg, 4 h, 5 minutes before TMS): 38.7 ng/mL and 8.92 ng/mL and 48.4 ng/mL and 16.5 ng/mL and 50 ng/mL and 24.5 ng/mL and 38 ng/mL and 4.91 ng/mL and 2.54 ng/mL and 29.8 ng/mL and 4.06 ng/mL and 60.7 ng/mL and 22.3 ng/mL and 32.7 ng/mL and 52.1 ng/mL and 8.77 ng/mL and 41.9 ng/mL
Compound A Plasma Concentration ([3]; Compound A Treatment Period, 20 mg, 6 h, 5 minutes before TMS): 49.7 ng/mL and 71.2 ng/mL and 48.5 ng/mL and 47.0 ng/mL and 39.1 ng/mL and 37.6 ng/mL and 4.43 ng/mL and 51.9 ng/mL and 6.23 ng/mL and 57.6 ng/mL and 53.2 ng/mL and 54.9 ng/mL and 52.2 ng/mL and 25.1 ng/mL and 79.4 ng/mL
Compound A Plasma Concentration ([3]; Placebo Treatment Period (carry-over), 2 h): 0 ng/mL (9×) and 4.96 ng/mL and 5.27 ng/mL and 6.28 ng/mL and 3.81 ng/mL and 5.74 ng/mL and 3.94 ng/mL and 7.44 ng/mL and 8.04 ng/mL
Compound A Plasma Concentration ([3]; Placebo Treatment Period (carry-over), 4 h): 0 ng/mL (9×) and 4.35 ng/mL and 4.48 ng/mL and 5.51 ng/mL and 3.6 ng/mL and 5.36 ng/mL and 3.66 ng/mL and 6.83 ng/mL and 8.15 ng/mL
Compound A Plasma Concentration ([3]; Placebo Treatment Period (carry-over), 6 h): 0 ng/mL (8×) and 5.56 ng/mL and 5.75 ng/mL and 3.42 ng/mL and 5.61 ng/mL and 3.44 ng/mL and 6.67 ng/mL and 8.22 ng/mL
Average high concentration of Compound A ([3]; during TMS assessment (FIG. 11, 12)): 45 ng/mL
concentration at 2 h ([3]; 20 mg, Compound A Treatment Period, 2 h, Mean): 15.9 ng/mL
concentration at 4 h ([3]; 20 mg, Compound A Treatment Period, 4 h, Mean): 30.1 ng/mL
concentration at 6 h ([3]; 20 mg, Compound A Treatment Period, 6 h, Mean): 42.1 ng/mL
half-life [3, 4]: 127 ± 84.6 h
AUC(0-t) ([3]; 20 mg, Full PK Profile (N=16), Mean ± SD, read-out: AUC0-24): 692 ± 151 ng·h/mL
Cmax ([3]; 20 mg, Full PK Profile (N=16), Mean ± SD, read-out: Cmax): 60.1 ± 14.9 ng/mL
Tmax ([3]; 20 mg, Full PK Profile (N=16), Median): 6.83 h
Tmax [3, 5]: 1.92 to 12 h
half-life [3, 5]: 48.2 to 306 h
AUC(0-t) ([3]; 20 mg, Full PK Profile (N=16), Range, read-out: AUC0-24): 383 to 951 ng·h/mL
Cmax ([3]; 20 mg, Full PK Profile (N=16), Range, read-out: Cmax): 29.9 to 79.4 ng/mL
AUC(0-inf) [3, 7]: 3160 ng·h/mL
MRT inf [3, 7]: 102 h
MRT last [3, 7]: 77.4 ± 23.7 h
half-life [3, 7]: 127 h
AUC(0-t) ([3]; 20 mg, Full PK Profile Data Set (N=16), Mean ± SD, read-out: AUClast): 2370 ng·h/mL
CL/F ([3]; 20 mg, Full PK Profile Data Set (N=16), Mean ± SD, read-out: CL/F normalized (converted)): 1.62 mL/min/kg
Vd/F [3, 7]: 16.3 L/kg
AUC(0-inf) [3, 6]: 1920 ± 7390 ng·h/mL
MRT inf [3, 6]: 33 to 304 h
MRT last [3, 6]: 48.2 ± 122 h
half-life [3, 6]: 48.2 to 306 h
AUC(0-t) ([3]; 20 mg, Full PK Profile Data Set (N=16), Range, read-out: AUClast): 1580 ± 4400 ng·h/mL
CL/F ([3]; 20 mg, Full PK Profile Data Set (N=16), Range, read-out: CL/F normalized (converted)): 0.672 mL/min/kg
Vd/F [3, 6]: 6.4 ± 33.8 L/kg
half-life ([3]; 20 mg, Overall (N=20), 24 h sampling, Mean ± SD): 11.1 ± 2.6 h
half-life ([3]; 20 mg, Overall (N=20), 24 h sampling, Range): 8.01 to 14.9 h
AUC(0-t) ([3]; 20 mg, Overall (N=20), Mean ± SD, read-out: AUC0-24): 687 ± 160 ng·h/mL
Cmax ([3]; 20 mg, Overall (N=20), Mean ± SD, read-out: Cmax): 59.2 ± 13.8 ng/mL
Tmax ([3]; 20 mg, Overall (N=20), Median): 7.8 h
Tmax ([3]; 20 mg, Overall (N=20), Range): 1.9 to 12 h
AUC(0-t) ([3]; 20 mg, Overall (N=20), Range, read-out: AUC0-24): 358 to 951 ng·h/mL
Cmax ([3]; 20 mg, Overall (N=20), Range, read-out: Cmax): 29.9 to 79.4 ng/mL
half-life ([3]; 20 mg, Period 1 (N=10), 24 h sampling, Mean ± SD): 11.4 ± 2.6 h
half-life ([3]; 20 mg, Period 1 (N=10), 24 h sampling, Range): 8.46 to 14.9 h
AUC(0-t) ([3]; 20 mg, Period 1 (N=10), Mean ± SD, read-out: AUC0-24): 693 ± 184 ng·h/mL
Cmax ([3]; 20 mg, Period 1 (N=10), Mean ± SD, read-out: Cmax): 60.2 ± 17.3 ng/mL
Tmax ([3]; 20 mg, Period 1 (N=10), Median): 6.94 h
Tmax ([3]; 20 mg, Period 1 (N=10), Range): 1.92 to 12 h
AUC(0-t) ([3]; 20 mg, Period 1 (N=10), Range, read-out: AUC0-24): 383 to 951 ng·h/mL
Cmax ([3]; 20 mg, Period 1 (N=10), Range, read-out: Cmax): 29.9 to 77.1 ng/mL
half-life ([3]; 20 mg, Period 2 (N=10), 24 h sampling, Mean ± SD): 10.6 ± 2.9 h
half-life ([3]; 20 mg, Period 2 (N=10), 24 h sampling, Range): 8.01 to 14.3 h
AUC(0-t) ([3]; 20 mg, Period 2 (N=10), Mean ± SD, read-out: AUC0-24): 681 ± 142 ng·h/mL
Cmax ([3]; 20 mg, Period 2 (N=10), Mean ± SD, read-out: Cmax): 58.3 ± 9.94 ng/mL
Tmax ([3]; 20 mg, Period 2 (N=10), Median): 7.83 h
Tmax ([3]; 20 mg, Period 2 (N=10), Range): 1.92 to 8.15 h
AUC(0-t) ([3]; 20 mg, Period 2 (N=10), Range, read-out: AUC0-24): 358 to 869 ng·h/mL
Cmax ([3]; 20 mg, Period 2 (N=10), Range, read-out: Cmax): 46.2 to 79.4 ng/mL
concentration at 2 h ([3]; 20 mg, Placebo Treatment Period (carry-over), 2 h, Mean, read-out: Compound A Plasma Concentration): 5.46 ng/mL
concentration at 4 h ([3]; 20 mg, Placebo Treatment Period (carry-over), 4 h, Mean, read-out: Compound A Plasma Concentration): 5.17 ng/mL
concentration at 6 h ([3]; 20 mg, Placebo Treatment Period (carry-over), 6 h, Mean, read-out: Compound A Plasma Concentration): 5.28 ng/mL
CL/F ([3]; 20 mg, equivalent of 97.5 mL/h/kg, read-out: Body weight normalized clearance (CL/F)): ~1.6 mL/min/kg
Cmax ([3]; 20 mg, subjects who received placebo in Period 2, mean, read-out: Cmax of Compound A in placebo treatment period): 5.84 ng/mL
Cmax ([3]; 20 mg, subjects who received placebo in Period 2, range, read-out: Cmax of Compound A in placebo treatment period): 3.34 to 9.61 ng/mL
